These results are taken from patent US20120220480A1, “METHOD FOR THE DETECTION OF RENAL DAMAGE” (UNIVERSIDAD DE SALAMANCA, priority 2009, published 2012).

In series [1] the test system is gelsolin. As to the kind of experiment: Renal tissue gene expression by RT-PCR, gelsolin. Type of series: in vivo, rat. The settings on record: 3 and 6 days treatment (FIG. 8). How it is done: (§1) Female Wistar rats were used weighing 200-250 g. […] Normal feed and water were administered ad libitum. […] The kidneys were immediately dissected.
(§2) RT-PCR-amplification of reg IIIb, gelsolin and GAPDH was performed with the next primers: for rat reg IIIb, SEQ ID NO: 15 and SEQ ID NO: 16; for rat gelsolin, SEQ ID NO: 17 and SEQ ID NO: 18; for rat glyceraldehyde 3-phosphate dehydrogenase (GAPDH), SEQ ID NO: 19 and SEQ ID NO: 20. PCR conditions were: 1×(95° C.×4 min); 30×(95° C.×1 min+Tm×1 min); 1×72° C.×10 min); where Tm was 55.5° C. for reg IIIb, 55.0° C. for gelsolin, and 55.9° C. for GAPDH.

Another series has as its system Kidney sections. The series can be described thus: Renal histopathological study (hematoxilin and eosin stained kidney sections). Type of series: in vivo, rat. Conditions: rats. How it is done: as §1
The kidneys were kept in p-formaldehyde all night at 4° C. Next, paraffin blocks were made and 5-μm tissue sections were cut and stained with hematoxilin and eosin. Photographs were taken under an Olympus BX51 microscope connected to an Olympus DP70 colour digital camera.

Series [2] has as its system reg IIIb. The series can be described thus: Renal tissue gene expression by RT-PCR, reg IIIb. In kind it is in vivo, rat. Conditions: as early as on day 3, highest on day 6 (FIG. 8-A). How it is done: as §1, §2
The conditions of series [3]: Leehey D J et al., 1993; cited from earlier work.
In series [4] the test system is reg IIIb. The series can be described thus: Western blot analysis of reg IIIb in urine and serum of treated rats. The method, then: Female Wistar rats were used weighing 200-250 g. The animals were allocated under controlled environmental conditions in individual metabolic cages, for individual urine sample collection every 24 hours. Normal feed and water were administered ad libitum. […] On day 7, the animals were anaesthetised with sodium pentobarbital and the kidneys were perfused by the aorta with saline (0.9% NaCl) to eliminate the blood. The kidneys were immediately dissected. One was frozen in liquid nitrogen and subsequently kept at −80° C. for Western blot studies, and the other was soaked in p-formaldehyde at 3.7% for histological studies. Blood samples were also obtained in heparinised capillaries at different time points by a small incision in the tail tip. Blood was centrifuged and serum was kept at −80° C. until use. Urine was cleared by centrifugation at 10,000 g and 4° C. during 10 minutes, and kept at −80° C. until use. […]

The next series relates to Female Wistar rats. The series can be described thus: Gentamicin-induced kidney damage in rats: survival, body weight, serum and urine biochemical measurements. How it is done:
(§3) Female Wistar rats were used weighing 200-250 g. The animals were allocated under controlled environmental conditions in individual metabolic cages, for individual urine sample collection every 24 hours. Normal feed and water were administered ad libitum. […] On day 7, the animals were anaesthetised with sodium pentobarbital and the kidneys were perfused by the aorta with saline (0.9% NaCl) to eliminate the blood. The kidneys were immediately dissected. One was frozen in liquid nitrogen and subsequently kept at −80° C. for Western blot studies, and the other was soaked in p-formaldehyde at 3.7% for histological studies. Blood samples were also obtained in heparinised capillaries at different time points by a small incision in the tail tip. Blood was centrifuged and serum was kept at −80° C. until use. Urine was cleared by centrifugation at 10,000 g and 4° C. during 10 minutes, and kept at −80° C. until use.
Serum and urinary creatinine and urea nitrogen concentration were measured using commercial reactive strips (Roche Diagnostics) and the Reflotron® automated analyser (Roche Diagnostics). […] Urine protein concentration was measured by the Bradford method (Bradford, 1976. Anal Biochem, 72: 248-254). Urine NAG content was indirectly determined by the level of NAG activity. NAG enzymatic activity was determined by a colorimetric method based on the conversion of 3-cresolsulfonphthaleinyl-N-acetyl-D-glucosaminide into the purple 3-cresol-cresolsulfonphthaleinyl, measured at 580 nm using a plate photometer (Thermo). To measure NAG activity a commercial kit was used (Roche Diagnostics) following the manufacturer's instructions.

The test system of series [5] is gelsolin. As to the kind of experiment: Western blot analysis of gelsolin in urine and serum of treated rats. The method, then: as §3
Western blots were run with (i) urine samples (21 μl per sample), (ii) tissue extracts (100 μg total protein per sample) prepared by homogenizing the kidneys with a tissue mixer (Ultra-Turrax T8, IKA®-Werwe) at 4° C. in homogenization buffer (140 mM NaCl, 20 mM Tris-HCl pH=7.5, […] ethylenediaminetetraacetic acid—EDTA-, 10% glycerol, 1% Igepal CA-630, 1 μg/mL aprotinin, 1 μg/mL leupeptin, 1 μg/mL pepstatin A, 1 mM phenylmethylsulphonyl fluoride—PMSF—), or (iii) albumin-free blood serum. Albumin was removed from serum with a column-based, commercial kit based on the immunological retention of rat albumin (Qproteome Murine Albumin Depletion Kit, Quiagen). Samples were separated by electrophoresis in 10-15% acrylamide gels (Mini Protean II system, BioRad). Immediately, proteins were electrically transferred to an Immobilon-P membrane (Millipore). Membranes were probed with antibodies against KIM-1 (R&D Systems), bone morphogenetic protein 7 (BMP-7, Santa Cruz Biotechnology), NGAL (MBL), PAI-1 (BD Biosciences), reg IIIb (R&D Systems), and gelsolin (Santa Cruz Biotechnology).
In general terms: In western blotting, separated proteins are transferred to a membrane and probed.

[6] abbreviates: rats, gentamicin i.p. 150 mg/kg, after 7 days treatment.

Marks after values point to notes of the source that are not given here.

Regarding gentamicin, in the series with gelsolin [1], the “Renal expression pattern of gelsolin” value is reported as “does not modify”. Also, the “Renal histopathology after 3 days of treatment” value with Kidney sections (after 3 days of treatment (FIG. 7)) is on record as “no findings of tubular damage”. Besides, the “Renal histopathology at end of treatment” value in the series with Kidney sections (hematoxilin-eosin, end of treatment (FIG. 2)) is listed as “clear tubular necrosis”. Further, in the series with reg IIIb [2], the “Renal reg IIIb gene expression” value was “induces an increase”. Besides, the “Proportion of treatments in which nephrotoxicity appears” value in series [3] was 10-25%. Besides, the “Day on which reg IIIb appears in the urine” value with reg IIIb [4] (rats, time course of treatment, Western blot (FIG. 7)) was 4 days. Moreover, the “Urinary level of reg IIIb” value in the series on reg IIIb [4] (urine of rats with overt renal failure, Western blot (FIG. 6-A)) is given as “markedly increased”. Further, in the series on Female Wistar rats (setting [6]), the Proteinuria is on record as 40 ± 7.4^a mg/day, the Urine flow is 18 ± 3^a mL/day and the “Δ Weight (body weight as a percentage of the initial weight)” value was 95 ± 3^a %. The “Full length gelsolin band in urine” value in the series on gelsolin [5] (urine of rats with overt renal failure, Western blot (FIG. 6)) is reported as “induces the appearance”.

On to `N.N.[Cl][Pt][Cl]` [cisplatin], for which the “Renal failure (serum creatinine concentration and BUN)” value with Female Wistar rats (rat, in vivo) is “developed an overt renal failure”. In addition, in the series on gelsolin [5] (rat, in vivo), the “Full length gelsolin band in urine” value is listed as “absent in the urine from all of the rats treated with cisplatin, except for one of them”; the “~43 kDa gelsolin fragment (t-gelsolin) band in urine” value was “common to both gentamicin and cisplatin groups”.
